From PMC10733463, “Berberine-microbiota interplay: orchestrating gut health through modulation of the gut microbiota and metabolic transformation into bioactive metabolites” (Frontiers in Pharmacology, 2023)

Columns and labels:
[1] = Dihydroberberine stability in solution over 24 hours; assay type: physicochemical; details: within 24 h; 10 ng/mL in Milli-Q water, 10°C, without vitamin C
Method: A working solution of dihydroberberine at 10 ng/mL was prepared in Milli-Q water and supplemented or not with 17 mg/mL L-ascorbic acid (vitamin C) solution and injected during 24 hours of storage time in the autosampler at 10°C.

[2] = UPLC-MS/MS quantification of berberine and metabolites in ileal and caecal content; assay type: in vivo, Ross 308 broiler chickens; details: 21 days
Excerpt: (§1) The study was undertaken following the guidelines of the ethics committee of the Faculty of Veterinary Medicine and Bioscience Engineering, Ghent University, in accordance with the EU Directive 2010/63/EU. One-day-old Ross 308 male broilers were obtained from a local hatchery and housed in pens on wood shavings. They were allotted into 4 groups, with three replicate pens per group each housing 8 chickens. The animals were not vaccinated. Water and commercial starter feed (day 1–12, FARM 1 Mash, Country’s Best, Versele Laga, Deinze, Belgium) or grower (day 13–21, FARM 2 mash, Country’s Best, Versele Laga, Deinze, Belgium) were provided ad libitum. The control group received the standard non-supplemented diets, whereas the chickens in other groups were fed the same feed supplemented with 0.1, 0.5 or 1 g berberine/kg feed throughout the whole trial period. At day 21, 4 birds per pen were weighted then euthanized by sodium pentobarbital injection for sampling. Individual jejunal, ileal, caecal and colonic contents were stored at −20°C for microbiota composition analysis (16S rRNA gene sequencing). Additionally, ileal and caecal content samples were collected and stored at −20°C for berberine and berberine-derived metabolite quantification. Duodenal tissue samples were collected and fixed in 4% phosphate buffered formaldehyde for histological analysis. Blood samples were collected in heparin tubes and centrifuged at 524 g for 10 min to recover the plasma fraction, which was further mixed with 17 mg/mL L-ascorbic acid for dihydroberberine stabilization, and stored at −20°C for berberine and berberine-derived metabolite quantification.
(§2) The column temperature was maintained at 25°C. The autosampler temperature was set at 10°C.
250 mg of ileal or caecal content was weighed in a 15 mL polypropylene centrifuge tube and 250 µL of ascorbic acid 170 mg/mL solution was added for stabilization of dihydroberberine, followed by brief vortexing. Subsequently, 25 µL of an internal standard solution containing 250 μg/mL of berberine-d6 and 2.5 μg/mL tetrahydropalmatine were added, followed by brief vortexing. A 2.5 mL volume of extraction solvent was then added, consisting of a 1% (v/v) formic acid solution in methanol. The sample was put on a rotary shaker set at 80 rpm for 20 min, followed by centrifugation (3,720 g, 10 min, 4°C). The supernatant was then diluted, by a factor 5 for measurement of low abundance components, and by a factor 2,000 for measurement of high abundance components. The 1/5 diluted sample extract was prepared directly in an autosampler vial as follows: 200 µL sample extract were mixed with 100 µL ascorbic acid 170 mg/mL solution and 700 µL Milli-Q water. For the 1/2,000 diluted sample extract, an intermediate 1/100 sample dilution was prepared by combining 500 µL sample extract and 49.5 mL of Milli-Q water. 50 μL was then transferred in an autosampler vial followed by the addition of 950 µL of Milli-Q water. For both dilutions, a 5 µL sample aliquot was injected onto the UPLC-MS/MS apparatus. Quantification was based on the ratio of the analyte peak area compared to the peak area of the internal standard tetrahydropalmatine for 1/5 diluted sample extracts, and on the ratio of the analyte peak area compared to the peak area of the internal standard berberine-d6 for 1/2,000 diluted sample extracts.
Calibration standards and quality control samples were prepared as follows: 250 mg of blank ileal or caecal content were supplemented with 250 µL of ascorbic acid 170 mg/mL solution, 25 µL mixed solution of berberine and metabolites (with the exception of dihydroberberine) at different levels, 25 µL of dihydroberberine solution, stabilized with 17 mg/mL ascorbic acid, at different levels and 25 µL of an internal standard solution containing 0.625 μg/mL of berberine-d6 and 2.5 μg/mL tetrahydropalmatine. The calibration curve was in the 62.5–5,000 ng/g range, and included 62.5, 125, 250, 500, 1,000, 2,500, and 5,000 ng/g levels. […]

[3] = UPLC-MS/MS quantification of berberine and metabolites in plasma; assay type: in vivo, Ross 308 broiler chickens; details: chickens fed 0.1, 0.5 or 1 g berberine/kg feed for 21 days; LOQ 0.1 ng/mL
Excerpt: as §1, §2
A 137.5 µL plasma sample containing 17 mg/mL L-ascorbic acid was used for sample extraction. The ascorbic acid solution was added to prevent oxidation of dihydroberberine to berberine during sample storage ([Feng et al., 2015]). The plasma sample was transferred to an OstroTM 96 well-plate (25 mg) (Waters). Subsequently, 50 µL Milli-Q water and 25 µL of an internal standard solution containing 100 ng/mL of both berberine-d6 and tetrahydropalmatine were added. A 640 µL volume of 1% (v/v) formic acid solution in acetonitrile (1/3 ratio) was added, followed by gentle mixing. Vacuum was applied on the Ostro™ plate for 5 min and the eluate was collected in a 2 mL square 96-well collector plate. The sample was transferred in a glass tube and evaporated at 40°C under a gentle stream of nitrogen in a Pierce (Rockford, United States) Reacti-Therm III™ Heating Module and Reacti-Vap™ III Module. The dried sample extract was reconstituted in 500 µL Milli-Q water, followed by injection of a 5 µL sample aliquot onto the UPLC-MS/MS apparatus. Quantification was based on the ratio of the analyte peak area compared to the peak area of the internal standard berberine-d6.
Calibration standards and quality control samples were prepared as follows: 137.5 µL of blank plasma stabilized with 17 mg/mL L-ascorbic acid were supplemented with 25 µL mixed working solutions of berberine and metabolites (except dihydroberberine) at different levels, 25 µL of dihydroberberine working solution, stabilized with 17 mg/mL L-ascorbic acid, at different levels and 25 µL of an internal standard solution containing 100 ng/mL of both berberine-d6 and tetrahydropalmatine. The calibration curve was in the 0.1–100 ng/mL range, including 0.1, 0.5, 1, 2.5, 5, 10, 25, […], 50 and 100 ng/mL levels.
The UPLC-MS/MS analysis method for the quantification of berberine and berberine-derived metabolites both in plasma and ileal/caecal intestinal content was validated to the guidelines of the European Medicines Agency, i.e., of the Committee for Veterinary Medicinal Products (EMEA/CVMP/VICH/463202/2009) and of the Committee for Medicinal Products for Human Use (EMEA/CHMP/EWP/192217/20), and in accordance with the EU Directive 2002/657/EC. […]

Caco-2 cells = experiment: Berberine metabolism in intestinal cell cultures, Caco-2; assay type: in vitro ADME, human; details: Caco-2, 0.1 μg/mL berberine, 48 h
Method: (§3) Caco-2 and T84 cells were seeded at 2 × 10^5 cells/well in 96-well plates and cultivated for 24 h in their respective medium, as described before. Cells were treated with 200 µL of 0.1 μg/mL berberine in antibiotic-free medium and incubated for 48 h. Berberine medium only was incubated in the same conditions as the cells and used as control for metabolite baseline levels. 100 μL of cell cultures or control medium were collected and centrifuged at 13,000 g for 10 min 80 μL of the supernatant was mixed with 20 µL 170 mg/mL L-ascorbic acid solution in water for dihydroberberine stabilization and stored at −20°C until metabolite analysis. All experiments were performed in triplicate at 37°C, 5% CO2. Metabolite production was expressed as a log2 fold change, calculated as the log2 of the ratio of the metabolite response at t = 48 h in the cell cultures over the metabolite response at t = 48 h in the control medium.
as §2

T84 cells = experiment: Berberine metabolism in intestinal cell cultures, T84; assay type: in vitro ADME, human; details: T84, 0.1 μg/mL berberine, 48 h
Method: as §3, §2

| Compound | Oxidation of dihydroberberine back to berberine [1] | Ratio caecum / ileum (concentration) ([2]; 0.1 g berberine/kg feed) | Ratio caecum / ileum (concentration) ([2]; 0.5 g berberine/kg feed) | Ratio caecum / ileum (concentration) ([2]; 1 g berberine/kg feed) | Detection in plasma [3] | Detection in cell culture (Caco-2 cells) | Detection in cell culture (T84 cells) |
| --- | --- | --- | --- | --- | --- | --- | --- |
| COc1ccc2c(c1OC)CN1CCc3cc4c(cc3C1=C2)OCO4 [Dihydroberberine, dihydroberberine] | up to 66% | 0.75 | 0.27 | 0.44 | effectively detected |  |  |
| COc1ccc2cc3n(c(=O)c2c1OC)CCc1cc2c(cc1-3)OCO2 [Oxyberberine, oxyberberine] |  | 1.94 | 1.48 | 0.95 | not detected | not detected | not detected |
